Results from article PMC9867837 (Cancer letters, 2022).
Like-named read-outs stand apart in the source and are kept apart here.

How the values were obtained:
[1] = test system: Stat3-independent pLucSRE luciferase reporter; experiment: Stat3-independent luciferase reporter pLucSRE in NIH3T3/v-Src; format: cell-based, mouse; settings: 1–3 μM H182 for 1 h
[2] = target: T1, glucocorticoid receptor (GR) (Homo sapiens, UniProt P04150); experiment: CEREP SafetyScreen44, glucocorticoid receptor; format: binding
T1 construct: Eurofins-CEREP (SafetyScreen44 panel)

[3] = target: T2, Stat3:Stat3 DNA-binding activity (Mus musculus, UniProt P42227); experiment: EMSA of Stat3:Stat3 DNA-binding activity in nuclear extracts; format: biochemical; settings: for Stat3:Stat3 % of Con, pre-formed Stat3:DNA complex: extract pre-incubated with hSIE probe 30 min
T2 construct: endogenous in cells; host or cells: NIH3T3/v-Src fibroblasts; EGF-stimulated NIH3T3/hEGFR fibroblasts (nuclear extracts)
Description: Details are presented in Supplementary Information, “Methods”. […]
min, prior to incubation with the radiolabeled probe for 30 min at 30 °C and subjecting to EMSA analysis.
In another case, the nuclear extract was pre-incubated with the radiolabeled probe for 30 min at 30 °C prior to incubation with increasing concentration of H182 at room temperature for 30 min and subjecting to EMSA analysis. Bands corresponding to Stats DNA- binding activities were scanned and quantified using ImageJ and plotted as a percentage of control (vehicle) against the concentration of the inhibitor, from which the IC50 values were derived .

[4] = target: SH2 domain of pure recombinant Stat3 (Homo sapiens, UniProt P40763); experiment: Stat3 fluorescence polarization (FP) assay; format: binding; settings: 0–10 μM, 5-carboxyfluorescein-GpYLPQTV-NH2 probe
Description: Details are presented in Supplementary Information, “Methods”.
The Stat3:azetidine compound interaction was investigated further by focusing on how the compounds might interfere with Stat3 dimerization (Stat3:Stat3), which occurs via pTyr peptide:SH2 domain interaction. […]
confocal microscope (Stellaris 8-STED Super -resolution , Germany) with a 60x oil lens and images were processed by ImageJ software.
1.2.9. Fluorescence polarization assay (FP)
These studies were conducted as previously reported using the labeled phosphopeptide, 5-carboxyfluorescein GpYLPQTV-NH 2 (where pY represents phospho-Tyr) as probe and purified recombinant Stat3, with some modifications. […]
10 µM of unlabeled GpYLPQTV-NH 2 (positive control) or H182 at 30 °C for 30 min in the indicated assay buffer conditions, prior to the addition of the labeled probe at 10 nM final concentration and incubated for 30 min at room temperature, and thereafter reading the FP signal at 10, 30, and 60 min using the SpectraMax ID5 (Molecular Devices, San Jose, CA), with the set gain adjustment at 35 mP. In some cases, the recombinant His-Stat3 was pre-incubated with the unlabeled GpYLPQTV-NH 2 or H182 at 0-10 µM for 10 min or at 0-50 µM for 30 min prior to incubation with the labeled probe, and thereafter reading the FP signal at 10, 30, or 60 min using the SpectraMax ID5, with the set gain adjustment at 35 mP.
1.2.10. […]

[5] = target: CYP3A (Homo sapiens, UniProt P08684); experiment: CYP inhibition, CYP3A; format: in vitro ADME
Description: The in vivo activity of a compound is influenced by its overall bioavailability, which is also driven by parameters, such as solubility, permeability, and metabolism. […] These values are all above the industry cut-off of 60 μg/ml. […] It has CLint in human hepatocytes of 16 μL/min/10^6 cells, which falls into moderate stability range [43].

[6] = 2 μM H182, incubation time 3 min
[7] = 2 μM H182, incubation time 10 min
[8] = 2 μM H182, incubation time 30 min
[9] = 2 μM H182, incubation time 60 min

T2 sequence (P42227 2-770 limits assumed): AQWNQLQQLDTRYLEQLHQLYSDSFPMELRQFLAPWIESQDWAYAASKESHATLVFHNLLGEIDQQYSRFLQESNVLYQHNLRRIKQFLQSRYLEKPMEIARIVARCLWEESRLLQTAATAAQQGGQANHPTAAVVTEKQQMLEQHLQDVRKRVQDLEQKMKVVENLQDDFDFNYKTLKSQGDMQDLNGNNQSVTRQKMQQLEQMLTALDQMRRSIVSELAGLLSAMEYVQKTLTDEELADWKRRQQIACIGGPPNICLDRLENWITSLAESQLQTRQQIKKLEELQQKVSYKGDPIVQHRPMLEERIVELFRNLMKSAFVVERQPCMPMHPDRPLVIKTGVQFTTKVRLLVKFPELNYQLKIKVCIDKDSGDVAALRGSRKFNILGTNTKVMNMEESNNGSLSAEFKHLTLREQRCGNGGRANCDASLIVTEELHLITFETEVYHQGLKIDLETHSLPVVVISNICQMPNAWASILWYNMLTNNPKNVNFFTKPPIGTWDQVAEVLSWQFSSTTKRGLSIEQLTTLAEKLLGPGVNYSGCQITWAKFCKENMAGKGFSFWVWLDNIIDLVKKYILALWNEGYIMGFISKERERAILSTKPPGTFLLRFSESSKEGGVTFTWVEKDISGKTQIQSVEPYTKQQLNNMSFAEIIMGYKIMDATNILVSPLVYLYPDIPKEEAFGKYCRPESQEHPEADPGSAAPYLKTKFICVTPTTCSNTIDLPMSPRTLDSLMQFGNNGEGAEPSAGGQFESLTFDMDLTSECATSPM
CYP3A, sequence (P08684 2-503): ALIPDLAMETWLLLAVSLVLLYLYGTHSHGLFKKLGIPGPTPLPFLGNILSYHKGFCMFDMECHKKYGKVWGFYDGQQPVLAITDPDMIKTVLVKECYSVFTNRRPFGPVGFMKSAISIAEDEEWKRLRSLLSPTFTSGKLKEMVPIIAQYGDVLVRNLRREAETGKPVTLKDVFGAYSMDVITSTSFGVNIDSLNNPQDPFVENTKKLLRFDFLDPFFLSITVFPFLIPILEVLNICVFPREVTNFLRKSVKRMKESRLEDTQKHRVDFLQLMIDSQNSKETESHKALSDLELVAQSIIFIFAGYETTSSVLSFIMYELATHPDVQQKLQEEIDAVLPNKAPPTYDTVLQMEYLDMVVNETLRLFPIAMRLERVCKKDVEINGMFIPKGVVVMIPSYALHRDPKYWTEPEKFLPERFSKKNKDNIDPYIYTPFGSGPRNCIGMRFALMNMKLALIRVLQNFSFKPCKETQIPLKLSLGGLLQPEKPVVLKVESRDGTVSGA
T1 sequence (P04150 whole entry): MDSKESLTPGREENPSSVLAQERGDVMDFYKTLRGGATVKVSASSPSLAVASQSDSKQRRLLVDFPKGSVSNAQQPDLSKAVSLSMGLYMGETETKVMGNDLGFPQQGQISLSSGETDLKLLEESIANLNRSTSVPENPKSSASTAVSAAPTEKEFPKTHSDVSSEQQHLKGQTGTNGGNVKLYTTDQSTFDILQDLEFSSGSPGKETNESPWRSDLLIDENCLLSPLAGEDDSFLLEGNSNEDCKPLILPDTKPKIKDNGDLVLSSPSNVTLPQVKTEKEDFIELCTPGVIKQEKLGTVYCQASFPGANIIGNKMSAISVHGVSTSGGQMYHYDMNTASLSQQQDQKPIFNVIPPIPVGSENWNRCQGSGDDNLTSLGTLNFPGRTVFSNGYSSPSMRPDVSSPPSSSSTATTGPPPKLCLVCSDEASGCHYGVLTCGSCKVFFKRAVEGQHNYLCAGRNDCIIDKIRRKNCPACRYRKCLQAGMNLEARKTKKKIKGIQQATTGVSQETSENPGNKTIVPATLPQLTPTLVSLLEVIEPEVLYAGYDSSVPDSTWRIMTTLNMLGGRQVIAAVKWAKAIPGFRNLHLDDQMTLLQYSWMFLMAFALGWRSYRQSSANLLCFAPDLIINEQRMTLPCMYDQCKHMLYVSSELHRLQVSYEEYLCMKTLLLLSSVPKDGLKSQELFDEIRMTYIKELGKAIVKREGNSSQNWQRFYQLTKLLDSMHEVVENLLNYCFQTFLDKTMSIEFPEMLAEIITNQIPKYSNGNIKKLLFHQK
SH2 domain of pure recombinant Stat3, sequence (P40763 whole entry, the tested form may be a part): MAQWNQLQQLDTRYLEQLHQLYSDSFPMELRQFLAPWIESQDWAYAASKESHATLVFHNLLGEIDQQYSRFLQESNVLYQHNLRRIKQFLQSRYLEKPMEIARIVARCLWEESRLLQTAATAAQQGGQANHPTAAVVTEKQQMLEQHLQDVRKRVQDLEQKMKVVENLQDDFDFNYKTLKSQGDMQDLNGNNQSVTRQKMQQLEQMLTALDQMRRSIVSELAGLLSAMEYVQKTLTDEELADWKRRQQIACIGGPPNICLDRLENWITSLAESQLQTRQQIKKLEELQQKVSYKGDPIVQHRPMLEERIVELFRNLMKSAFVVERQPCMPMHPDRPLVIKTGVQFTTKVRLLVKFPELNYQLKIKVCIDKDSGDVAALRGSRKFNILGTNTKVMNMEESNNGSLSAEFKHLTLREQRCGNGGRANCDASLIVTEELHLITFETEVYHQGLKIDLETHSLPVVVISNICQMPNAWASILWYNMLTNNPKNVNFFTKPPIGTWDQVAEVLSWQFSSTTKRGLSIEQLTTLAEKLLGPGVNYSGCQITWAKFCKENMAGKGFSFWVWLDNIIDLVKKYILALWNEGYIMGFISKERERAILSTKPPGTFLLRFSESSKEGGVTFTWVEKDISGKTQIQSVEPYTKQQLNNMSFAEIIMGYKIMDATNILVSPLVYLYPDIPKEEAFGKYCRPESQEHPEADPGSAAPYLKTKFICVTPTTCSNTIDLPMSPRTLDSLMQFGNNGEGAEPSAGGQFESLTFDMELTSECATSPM

**Q.** For `O=C([C@H]1CCN1S(=O)(=O)c1c(F)c(F)c(F)c(F)c1F)N(Cc1ccc(C2CCCCC2)cn1)c1ccc2c(=O)[nH]ncc2c1` [Compound H182], which “Effect on pLucSRE luciferase reporter expression” value [1] is on record?
**A.** no changes

**Q.** What about the inhibition at 10 µM ([2]; 10 μM H182) of the same compound?
**A.** > 80%

**Q.** What about the IC50 ([2]; SafetyScreen44 follow-up dose-response) of the same compound?
**A.** 110 nM

**Q.** And the “Stat3:Stat3 Intensity (% of Con)” value ([3]; 2 μM H182, incubation time 0 min)?
**A.** 100 % of Con

**Q.** And the “Stat3:Stat3 Intensity (% of Con)” value [3, 6]?
**A.** 84 % of Con

**Q.** And the inhibition at 2 µM [3, 6]?
**A.** 16%

**Q.** And the “Stat3:Stat3 Intensity (% of Con)” value [3, 7]?
**A.** 65 % of Con

**Q.** And the inhibition at 2 µM [3, 7]?
**A.** 35%

**Q.** What about the “Stat3:Stat3 Intensity (% of Con)” value [3, 8] of the same compound?
**A.** 14 % of Con

**Q.** And the inhibition at 2 µM [3, 8]?
**A.** 86%

**Q.** What about the “Stat3:Stat3 Intensity (% of Con)” value [3, 9] of the same compound?
**A.** 0.1 % of Con

**Q.** What about the inhibition at 2 µM [3, 9] of the same compound?
**A.** 99.9%

**Q.** And the IC50 ([3]; EMSA, NIH3T3/v-Src nuclear extracts, 30-min incubation at room temperature before hSIE probe, read-out: Stat3:Stat3 IC50)?
**A.** 660 ± 100 nM

**Q.** And the IC50 ([3]; EMSA, incubation time 10 min before hSIE probe, read-out: Stat3:Stat3 IC50)?
**A.** 1470 nM

**Q.** What about the IC50 ([3]; EMSA, incubation time 60 min before hSIE probe, read-out: Stat3:Stat3 IC50) of the same compound?
**A.** 380 nM

**Q.** And the IC50 ([3]; Fig. 1C, extracts of EGF-stimulated NIH3T3/hEGFR, hSIE probe, 30 min, read-out: IC50 Stat3:Stat3)?
**A.** 700 nM

**Q.** What about the “Stat3:Stat3 % of Con, pre-formed Stat3:DNA complex” value (shortened to “Stat3:Stat3 % of Con”) ([3]; then 1 μM H182 30 min) of the same compound?
**A.** 101 % of Con

**Q.** What about the “Stat3:Stat3 % of Con” value ([3]; then 3 μM H182 30 min) of the same compound?
**A.** 101 % of Con

**Q.** What about the “Stat3:Stat3 % of Con” value ([3]; then 10 μM H182 30 min) of the same compound?
**A.** 100 % of Con

**Q.** What about the “Stat3:Stat3 % of Con” value ([3]; then 30 μM H182 30 min) of the same compound?
**A.** 98 % of Con

**Q.** What about the “Stat3:Stat3 % of Con” value ([3]; then 100 μM H182 30 min) of the same compound?
**A.** 86 % of Con

**Q.** And the IC50 ([3]; range over the named compounds and incubation times, read-out: IC50 Stat3 DNA-binding activity in vitro (summary range))?
**A.** 380 to 980 nM

**Q.** What about the “Inhibition of the pre-formed Stat3:DNA complex” value ([3]; up to 100 μM H182) of the same compound?
**A.** unable to inhibit the pre-formed Stat3:DNA complex

**Q.** And the “Effect on FP signal” value [4]?
**A.** fluctuations of the FP signal

**Q.** What about the IC50 ([5]; probe midazolam, midazolam site, read-out: CYP Inhibition CYP3A (Midazolam) IC50) of the same compound?
**A.** 6900 nM

**Q.** And the IC50 ([5]; probe testosterone, testosterone site, read-out: CYP Inhibition CYP3A (Testosterone) IC50)?
**A.** 1200 nM
